Data reported in patent US7033829B2, “Method to inhibit cell growth using oligonucleotides” (Trustees of Boston University, priority 2000, dated 2006).

System: Normal human neonatal fibroblasts
Assay: Cell growth of normal neonatal fibroblasts
Format: cell-based
Conditions: 100 μM
Procedure: Normal human neonatal fibroblasts were plated in Falcon P35 culture dishes at a density of 9×10^4 cells/dish. The culture medium was DME+10% calf serum, 2 ml per plate. One day after plating, cultures were supplemented with either 100 μM T2 in DME or 100 μM A2 in DME, or water (control). Two plates were collected and counted before the additions to give a starting, or “day 0,” reading. Duplicate plates of each condition were harvested through five days after addition of the supplements and cell number determined. All cell counts were done by Coulter™ Counter.
In a second experiment, normal human neonatal fibroblasts were plated and cultured, as described above in Example 1 for SCC12F cells. Cultures were supplemented with either 100 μM T2 or water (control), and cells were harvested for cell counts. The cell yield in fibroblast cultures treated with T2 was reduced by 40% compared to that of paired control cultures after three days (FIG. 8). This corresponds to 4 population doublings in this time for control cells, compared with 3.6 doublings for T2-treated cells.

thymidine dinucleotide [pTpT]
cell yield reduced compared to paired control cultures (after three days): 40%
population doublings (three days (control 4)): 3.6
